# In patent USRE37781E1, “Substituted cyclic carbonyls and derivatives thereof useful as retroviral protease inhibitors” (DuPont Pharmaceuticals Company, priority 1991, dated 2002):
# pKi: −log10 of the molar value. Where two headings read alike, the source gives them in different places.
# Columns and labels:
# HIV-1 (RF) in MT-2 cells = assay: microbe, parasite or virus in culture; type: cell-based
# Description: DNA Plasmids and in vitro RNA transcripts:
# Plasmid pDAB 72 containing both gag and pol sequences of BH10 (bp 113-1816) cloned into PTZ 19R was prepared according to Erickson-Viitanen et al. AIDS Research and Human Retroviruses 1989, 5, 577. The plasmid was linearized with Bam HI prior to the generation of in vitro RNA transcripts using the Riboprobe Gemini system II kit (Promega) with T7 RNA polymerase. Synthesized RNA was purified by treatment with RNase free DNAse (Promega), phenol-chloroform extraction, and ethanol precipitation. RNA transcripts were dissolved in water, and stored at −70° C. The concentration of RNA was determined from the A260.
# Biotinylated capture probes were purified by HPLC after synthesis on an Applied Biosystems (Foster City, Calif.) DNA synthesizer by addition of biotin to the 5′ terminal end of the oligonucleotide, using the biotin-phosphoramidite reagent of Cocuzza, Tet. Lett. 1989, 30, 6287. The gag biotinylated capture probe (5-biotin-[…] 3′) was complementary to nucleotides 889-912 of HXB2 and the pol biotinylated capture probe (5′-biotin-[…] 3′) was complementary to nucleotides 2374-2395 of HXB2. Alkaline phosphatase conjugated oligonucleotides used as reporter probes were prepared by Syngene (San Diego, Calif.). The pol reporter probe (5′ […] 3′) was complementary to nucleotides 2403-2425 of HXB2. The gag reporter probe (5′ […] 3′) was complementary to nucleotides 950-973 of HXB2. All nucleotide positions are those of the GenBank Genetic Sequence Data Bank as accessed through the Genetics Computer Group Sequence Analysis Software Package (Devereau Nucleic Acids Research 1984, 12, 387). The reporter probes were prepared as 0.5μM stocks in 2× SSC (0.3M NaCl, 0.03M sodium citrate), 0.05M Tris pH 8.8, 1 mg/mL BSA. The biotinylated capture probes were prepared as 10 μM stocks in water.
# Streptavidin coated plates:
# Nunc-immunomodule microtiter plate strips were coated by addition of 200 μL of streptavidin (30 ug/mL, Scripps, La Jolla, Calif.) in freshly prepared 10 mM sodium carbonate (pH 9.6). Plates were incubated overnight at 4° C. Streptavidin solution was aspirated from the wells and a blocking buffer composed of phosphate buffered saline (PBS), 20 mg/mL bovine serum albumin (crystalline, nuclease and protease free, Calbiochem) and 100 mg/mL lactose (Sigma) was added to the plates for 3 hrs at room temperature. Blocking buffer was removed from the wells, which were allowed to dry overnight at room temperature and subsequently stored at 4° C. in zip lock bags with desiccant. For the majority of the compound evaluation experiments, streptavidin coated plates were obtained from Du Pont Biotechnology Systems (Boston, Mass.).
# MT-2, CEM, and H9 cells were maintained in RPMI 1640 supplemented with 5% fetal calf serum (FCS), 2 mM L-glutamine and 50 μg/mL gentamycin, all from Gibco. Laboratory strains of HIV-1 (RF, MN and IIIB) were propagated in H9 cells in the same medium. Virus stocks were prepared approximately 1 month after acute infection of H9 cells by clarification of the tissue culture medium and storage of aliquots at −70° C. […] Each aliquot of virus stock used for infection was thawed only once. In some cases, infected H9 cells were shifted to Dulbecco's modified Eagle's medium 3-10 days before collection of virus in order to generate virus stocks in medium with low biotin content. Clinical isolates of HIV that had been passaged once in MT-2 cells were used to infect fresh MT-2 cells in RPMI medium. Three days after infection, cells were pelleted, resuspended and culture continued in Dulbecco's modified Eagle's medium as above. Virus stocks of clinical isolates were prepaid 10-15 days after infection when cytopathic effects were apparent in the culture.
# [1] = target: single-chain tethered dimer of HIV protease (Human immunodeficiency virus 1, UniProt P04585); assay: biochemical; type: biochemical; set-up: fused on or other part: A second copy of the same protease unit is joined to the first by a short peptide tether, giving one polypeptide
# Description: HIV Protease Inhibition Assay—HPLC Method
# Active protease was prepared as described therein by extraction with 67% acetic acid, dilution 33-fold with water, dialysis against water and then against a “refolding buffer” consisting of 20 mM MES, 1 mM dithiothreitol and 10% glycerol. Protease was stored as a stock preparation at 10 uM in refolding buffer.
# Substrate: Peptide of sequence: aminobenzoyl-Ala-Thr-His-Gln-Val-Tyr-Phe(NO2)-Val-Arg-Lys-Ala containing p-nitrophenylalanine, was prepared by solid phase synthesis as previously described Cheng et al., op.cit. Stock solutions of 2 mM substrate were prepared in DMSO.
# Inhibitory compounds were dissolved in sufficient DMSO to make 3 mM stock solutions. All further dilutions were prepared in “assay buffer”: 1M NaCl, 50 mM MES, pH 5.5, 1 mM EDTA, 1 mM DTT, […] glycerol.
# Enzyme reaction: In a 2 ml screw-cap centrifuge tube were added 50 ul protease (final concentration 0.25 nM) and 0.1 ml inhibitory compound (final concentration […]). After 15 min preincubation at room temperature, the reaction was started with the addition of 0.05 ml substrate (final concentration 5 uM). Incubation was carried out at 30 C. for 1 hr. The reaction was stopped with 1 ml 0.1M ammonium hydroxide.
# HPLC measurement of product formation: The product (aminobenzoyl-Ala-Thr-His-Gln-Val-Tyr) was separated from substrate on a Pharmacia MonoQ anion exchange column. The injection volume was 0.2 ml. The mobile phases were: A (20 mM trisHCl, pH 9.0, 0.02% sodium Azide, 10% acetonitrile), B (20 mM tris HCl, pH 9.0, 0.02% sodium azide, 0.5M ammonium formate, 10% acetonitrile). The mobile phases were pumped at 1 ml/min, with a gradient from 0 to 30% B in 5 min, 100% B for 4 min to wash the column, and a re-equilibration for 4 min. The retention time of the product was 3.6 min. Detection with a Shimadzu model RF535 fluorescence monitor was at 330 nm (excitation) and 430 (emission).
# [2] = Human immunodeficiency virus 1, MT2, 48 h, Table 2d, HIV RNA assay, read-out: IC90
# [3] = read-out: HPLC K1, Table 2d, HIV protease inhibition, HPLC method
# [4] = Human immunodeficiency virus 1, MT2, 48 h, Table 2d, class symbols, read-out: IC90
# [5] = read-out: HPLC K1, Table 2d, class symbols
structure (smiles),measurement,setting,value
CCC(=NO)c1cccc(CN2C(=O)N(Cc3cccc(C(CC)=NO)c3)C(Cc3ccccc3)C(O)C(O)C2Cc2ccccc2)c1 (stereo not drawn) [Example 15XP],IC90,HIV-1 (RF) in MT-2 cells; [2],< 10 µg/mL
same,pKi,[1]; [3],> 8.00
Cl.Cl.O=C(NCCCCCN1C(=O)N(CCCCCNC(=O)c2ccncc2)C(Cc2ccccc2)C(O)C(O)C1Cc1ccccc1)c1ccncc1 (stereo not drawn) [15FA],IC90,"HIV-1 (RF) in MT-2 cells; HIV RNA assay, HIV-1 infected MT-2 cells, Table 2d",+++ (+++=<10 μg/mL)
same,pKi,"[1]; HIV protease inhibition, HPLC method, Table 2d, read-out: HPLC K1",6.00 to 8.00
O=S1(=O)N(CCCCCO)C(Cc2ccccc2)C(O)C(O)C(Cc2ccccc2)N1Cc1cccc(CO)c1 (stereo not drawn) [23AH],IC90,HIV-1 (RF) in MT-2 cells; Table 2m,+++ (+++=<10 μg/mL)
same,pKi,"[1]; Table 2m, read-out: HPLC Ki",> 8.00
O=C1N(CC2CC2)C(C(F)Cc2ccccc2)C[C@@H](Cc2ccccc2)N1CC1CC1 (stereo partly drawn) [Example 8N],IC90,"HIV-1 (RF) in MT-2 cells; Human immunodeficiency virus 1, MT2, Table 1e, read-out: IC90",< 10 µg/mL
same,pKi,"[1]; read-out: Ki (HPLC), Table 1e, cells marked (HPLC)",< 6.00
COC(=O)c1ccc(CN2C(Cc3ccc(F)cc3)C(O)C(O)C(Cc3ccc(F)cc3)N(Cc3ccc(C(=O)OC)cc3)S2(=O)=O)cc1 (stereo not drawn) [31B],IC90,HIV-1 (RF) in MT-2 cells; Table 2u,+++ (+++=<10 μg/mL)
same,IC90,HIV-1 (RF) in MT-2 cells; Table 2u (second printing),+++ (+++=<10 μg/mL)
same,pKi,"[1]; Table 2u (second printing), HPLC method, read-out: K1 (HPLC)",6.00 to 8.00
same,pKi,"[1]; Table 2u, HPLC method, read-out: K1 (HPLC)",6.00 to 8.00
COc1cccc(CC2NC(=O)NC(Cc3cccc(OC)c3)C(O)C2O)c1 (stereo not drawn) [20AO],IC90,HIV-1 (RF) in MT-2 cells; Table 2i,++ (++=10 to 100 μg/mL)
same,pKi,"[1]; Table 2i, read-out: HPLC Ki",6.00 to 8.00
O=S1(=O)N(CC2CCOC2)C(Cc2ccccc2)C(O)C(O)C(Cc2ccccc2)N1CC1CCOC1 (stereo not drawn) [23R],IC90,HIV-1 (RF) in MT-2 cells; Table 2m,+++ (+++=<10 μg/mL)
same,pKi,"[1]; Table 2m, read-out: HPLC Ki",6.00 to 8.00
COC(=O)CCCCCN1C(=O)N(CCCCCC(=O)OC)C(Cc2ccccc2)C(O)C(O)C1Cc1ccccc1 (stereo not drawn) [Example 12H],IC90,HIV-1 (RF) in MT-2 cells; [4],10 to 100 µg/mL
same,pKi,[1]; [5],6.00 to 8.00
COc1cccc(CN2C(=S)N(Cc3cccc(OC)c3)C(Cc3ccccc3)C(O)C(O)C2Cc2ccccc2)c1 (stereo not drawn) [Example 27G],IC90,HIV-1 (RF) in MT-2 cells; Table 2q,+++ (+++=<10 μg/mL)
same,pKi,"[1]; Table 2q, read-out: HPLC Ki",> 8.00
Cc1ccc(S(=O)(=O)NN=Cc2cccc(CN3C(=O)N(Cc4cccc(C=NNS(=O)(=O)c5ccc(C)cc5)c4)C(Cc4ccccc4)C(O)C(O)C3Cc3ccccc3)c2)cc1 (stereo not drawn) [Example 15YF],IC90,HIV-1 (RF) in MT-2 cells; [2],< 10 µg/mL
same,pKi,[1]; [3],6.00 to 8.00
CNc1cccc(CN2C(=O)N(Cc3ccc(CO)cc3)C(Cc3ccccc3)C(O)C(O)C2Cc2ccccc2)c1 (stereo not drawn) [15M],IC90,HIV-1 (RF) in MT-2 cells; [4],< 10 µg/mL
same,pKi,[1]; [5],> 8.00
CC(=O)CCCCN1C(=O)N(CCCCC(C)=O)C(Cc2ccccc2)C(O)C(O)C1Cc1ccccc1 (stereo not drawn) [Example 15WB],IC90,HIV-1 (RF) in MT-2 cells; [4],10 to 100 µg/mL
same,pKi,[1]; [5],6.00 to 8.00
NC(=O)Sc1cccc(CN2C(=O)N(Cc3cccc(SC(N)=O)c3)C(Cc3ccccc3)C(O)C(O)C2Cc2ccccc2)c1 (stereo not drawn) [Example 12Q],IC90,"HIV-1 (RF) in MT-2 cells; Table 2d, class symbols",+ (+=>100 μg/mL)
same,pKi,"[1]; Table 2d, class symbols, read-out: HPLC K1",> 8.00
O=C1N(CCOCCO)C(Cc2ccccc2)C(O)C(O)C(Cc2ccccc2)N1CCOCCO (stereo not drawn) [Example 12U],IC90,HIV-1 (RF) in MT-2 cells; [4],10 to 100 µg/mL
same,pKi,[1]; [5],< 6.00
